Data as given in patent publication US10570184B2, “GLP-1/glucagon receptor co-agonists for medical use” (Novo Nordisk A/S, priority 2014, dated 2020).
Starred links: 1 amine or outer side, 2 acyl side, 3 side chain; linkers in the order of their positions; H or OH if unused. Non-standard residues stand in square brackets, D forms with d. Residues, ends and D or L forms follow the SMILES beside them. Groups on a side chain read outwards from the residue. *: point of attachment. C18 diacid = O=C(O)CCCCCCCCCCCCCCCCC(=O)*; γGlu = O=C(O)[C@H](CCC(=O)[*:2])N[*:1]; AEEA = NCCOCCOCC(=O)O; Aib = CC(C)(N)C(=O)O

Assays:
[1] = molecular target: T1, human GLP-1 receptor (Homo sapiens, UniProt P43220); assay: Assay (I)(a) GLP-1 receptor activation, CRE luciferase reporter gene assay in BHK cells; type: cell-based; conditions: without presence of serum albumin; read-out: GLP-1R EC50 (pM) [Assay (I)(a)]
T1 construct: expressed in transfected cells; host or cells: membranes of BHK cells (parent BHKTS13), clone FCW467-12A
Procedure: The purpose of this example was to test the activity or potency, of the glucagon derivatives of the invention, in vitro. The in vitro potency is the measure of human GLP-1 receptor (GLP-1R) or glucagon receptor (glucagonR) activation, respectively, in a whole cell assay. In vitro potency was determined by measuring the response of human GLP-1 or glucagon receptor, respectively, in a reporter gene assay. The assay was performed in a stably transfected BHK cell line that expresses either the human GLP-1 receptor or the human glucagon receptor and contains the DNA for the cAMP response element (CRE) coupled to a promoter and the gene for firefly luciferase (CRE luciferase). […] When assay incubation was completed, the luciferase substrate (luciferin) was added and the enzyme converted luciferin to oxyluciferin and produces bioluminescence. The luminescence was measured as the readout for the assay. The cells used in this assay (clone FCW467-12A/KZ10-1) were BHK cells with BHKTS13 as a parent cell line. The cells were derived from a clone (FCW467-12A) that expresses the human GLP-1 receptor and were established by further transfection with CRE luciferase to obtain the current clone. The cells were cultured at 5% CO2 in DMEM medium with 10% FBS, 1×GlutaMAX, 1 mg/ml G418, 240 nM MTX (methotrexate) and 1% pen/strep (penicillin/streptomycin). They were aliquoted and stored in liquid nitrogen. Before each assay, an aliquot was taken up and washed three times in PBS before being suspended at the desired concentration in assay medium. For 96-well plates the suspension was made to give a final concentration of 5×10EE3 cells/well. The following chemicals were used in the assay: Pluronic F-68 (10%) (Gibco 2404), ovalbumin (Sigma A5503), DMEM w/o phenol red (Gibco 11880-028), 1 M Hepes (Gibco 15630), Glutamax 100× (Gibco 35050) and steadylite plus (PerkinElmer 6016757). Assay Medium consisted of DMEM w/o phenol red, 10 mM Hepes, 1× GlutaMAX, 2% Ovalbumin and 0.2% Pluronic F-68. Cell stocks were thawed in a 37° C. water bath. Cells were washed three times in PBS. The cells were counted and adjusted to 5×10EE3 cells/50 μl (1×10EE5 cells/ml) in Assay Medium. A 50 μl aliquot of cells was transferred to each well in the assay plate. Stocks of the test compounds and reference compounds were diluted to a concentration of […] in Assay Medium. Compounds were diluted 10-fold to give the following concentrations: 2×10EE-6 M, 2×10EE-7 M, 2×10EE-8 M; 2×10EE-9 M, 2×10EE-10 M, 2×10EE-11 M, 2×10EE-12 M and 2×10EE-13 M. For each compound a blank assay medium control was also included. A 50 μl aliquot of compound or blank was transferred from the dilution plate to the assay plate. Compounds were tested at the following final concentrations: 1×10EE-6 M, 1×10EE-7 M, 1×10EE-8 M; 1×10EE-9 M, 1×10EE-10 M, 1×10EE-11 M and 1×10EE-12 M and 1×10EE-13 M. The assay plate was incubated for 3 h in a 5% CO2 incubator at 37° C. The assay plate was removed from the incubator and allowed to stand at room temperature for 15 min. A 100 μl aliquot of steadylite plus reagent was added to each well of the assay plate (reagent is light sensitive). Each assay plate was covered with aluminum foil to protect it from light and shaken for 30 min at room temperature. Each assay plate was read in a Perkin Elmer TopCount NXT instrument. The data from the TopCount instrument was transferred to GraphPad Prism software. The software performed a non-linear regression (log(agonist) vs response-Variable slope (four parameter)). EC50 values were calculated by the software and reported in pM.

[2] = molecular target: T1, human GLP-1 receptor; assay: Assay (II)(a) GLP-1 receptor binding, 125I-GLP-1 displacement SPA on BHK membranes; conditions: without presence of serum albumin; read-out: GLP-1R IC50 (nM) [Assay (II)(a)]
Procedure: The GLP-1 receptor (GLP-1R) binding is a measure of affinity of a compound for the human GLP-1 receptor. The receptor binding of each compound to the human GLP-1 receptor was measured in a displacement binding assay. In this type of assay a labelled ligand (in this case 125I-GLP-1) is bound to the receptor. Each derivative was added in a series of concentrations to isolated membranes containing the human GLP-1 receptor and displacement of the labelled ligand was monitored. The receptor binding was reported as the concentration at which half of the labelled ligand was displaced from the receptor, the IC50 value. In order to test the binding of the derivatives to albumin, the assay may be performed in a very low concentration of serum albumin (max. 0.001% final assay concentration) as well as in the presence of a (considerably) higher concentration of serum albumin (2.0% final assay concentration). An increase of the IC50 value, in the presence of serum albumin indicates an affinity to serum albumin and represents a method to predict a protracted pharmacokinetic profile of the test substance in animal models. The following chemicals were used in the assay: DMEM w/o phenol red (Gibco 11880-028), Pen/strep (Invitrogen 15140-122), G418 (Invitrogen 10131-027), 1 M Hepes (Gibco 15630), EDTA (Invitrogen 15575-038), PBS (Invitrogen 14190-094), fetal calf serum (Invitrogen 16140-071), EGTA, MgCl2 (Merck 1.05832.1000), Tween 20 (Amresco 0850C335), SPA particles (wheat germ agglutinin (WGA) SPA beads, Perkin Elmer RPNQ0001), [125I]-GLP-1]-(7-36)NH2 (produced in-house), OptiPlate™-96 (Perkin Elmer). Buffer 1 consisted of 20 mM Na-HEPES plus 10 mM EDTA and pH was adjusted to 7.4. Buffer 2 consisted of 20 mM Na-HEPES plus 0.1 mM EDTA and pH was adjusted to 7.4. Assay buffer consisted of 50 mM HEPES supplemented with 5 mM EGTA, 5 mM MgCl2, 0.005% Tween 20 and pH was adjusted to 7.4. The cells used in this assay (clone FCW467-12A) were BHK cells with BHKTS13 as a parent cell line. The cells express the human GLP-1 receptor. The cells were grown at 5% CO2 in DMEM, 10% fetal calf serum, 1% Pen/Strep (Penicillin/Streptomycin) and 1.0 mg/ml of the selection marker G418. To make a membrane preparation the cells were grown to approximately 80% confluence. The cells were washed twice in phosphate-buffered saline and harvested. The cells were pelleted using a brief centrifugation and the cell pellet was kept on ice. The cell pellet was homogenised with ULTRA-THURRAX dispersing instrument for 20-30 seconds in a suitable amount of buffer 1 (e.g., 10 ml). The homogenate was centrifuged for 15 minutes. The pellet was re-suspended (homogenised) in 10 ml buffer 2 and centrifuged. This step was repeated once more. The resulting pellet was re-suspended in buffer 2 and the protein concentration was determined. The membranes were aliquoted and stored at minus 80° C. • 1. For the receptor binding assay, 50 μl of the assay buffer was added to each well of an assay plate. • 2. Test compounds were serially diluted to give the following concentrations: 8×10EE-7 M, 8×10EE-8 M, 8×10EE-9 M, 8×10EE-10 M, 8×10EE-11 M, 8×10EE-12 M and 8×10EE-13 M. Twenty-five μl were added to appropriate wells in the assay plate. • 3. Cell membrane aliquots were thawed and diluted to their working concentration. Fifty μl were added to each well in the assay plate. • 4. WGA SPA beads were suspended in assay buffer at 20 mg/ml. The suspension was diluted to 10 mg/ml in assay buffer just prior to addition to the assay plate. Fifty μl were added to each well in the assay plate. • 5. The incubation was started by adding 25 μl of […] solution of [125I]-GLP-1]-(7-36)NH2 to each well of the assay plate. A 25 μl aliquot was reserved for measuring total counts/well. • 6. The assay plate was incubated for 2 h at 30° C. • 7. The assay plate was centrifuged for 10 min. • 8. The assay plate was read in a Perkin Elmer TopCount NXT instrument. […]

T1 sequence (P43220 24-463): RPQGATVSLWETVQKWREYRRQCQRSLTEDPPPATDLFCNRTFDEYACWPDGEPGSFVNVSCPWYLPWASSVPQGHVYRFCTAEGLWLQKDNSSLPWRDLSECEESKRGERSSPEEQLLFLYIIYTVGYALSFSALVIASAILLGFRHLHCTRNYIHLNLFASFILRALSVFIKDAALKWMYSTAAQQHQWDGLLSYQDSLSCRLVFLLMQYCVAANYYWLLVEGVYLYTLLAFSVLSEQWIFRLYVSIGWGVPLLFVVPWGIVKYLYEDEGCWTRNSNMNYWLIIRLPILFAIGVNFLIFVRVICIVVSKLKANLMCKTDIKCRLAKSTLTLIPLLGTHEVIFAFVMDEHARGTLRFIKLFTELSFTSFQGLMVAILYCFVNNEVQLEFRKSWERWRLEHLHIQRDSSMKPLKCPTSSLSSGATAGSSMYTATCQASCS

Compound | EC50 [1] [pM] | IC50 [2] [nM]
CC[C@H](C)[C@H](NC(=O)[C@H](CC(C)C)NC(=O)[C@H](Cc1c[nH]c2ccccc12)NC(=O)[C@H](CCC(N)=O)NC(=O)[C@@H](NC(=O)[C@H](Cc1ccccc1)NC(=O)[C@H](CC(=O)O)NC(=O)[C@H](CCCNC(=N)N)NC(=O)[C@H](C)NC(=O)[C@H](CCCNC(=N)N)NC(=O)[C@H](CCCNC(=N)N)NC(=O)[C@H](CO)NC(=O)[C@H](CCC(=O)O)NC(=O)[C@H](CC(C)C)NC(=O)[C@H](Cc1ccc(O)cc1)NC(=O)[C@H](CCCCN)NC(=O)[C@H](CO)NC(=O)[C@H](CC(C)C)NC(=O)[C@H](CC(=O)O)NC(=O)[C@H](CO)NC(=O)[C@@H](NC(=O)[C@H](Cc1ccccc1)NC(=O)[C@@H](NC(=O)CNC(=O)[C@H](CCC(N)=O)NC(=O)C(C)(C)NC(=O)[C@@H](N)Cc1c[nH]cn1)[C@@H](C)O)[C@@H](C)O)C(C)C)C(=O)N[C@@H](CCCCNC(=O)COCCOCCNC(=O)COCCOCCNC(=O)CC[C@H](NC(=O)CC[C@H](NC(=O)CC[C@H](NC(=O)CCCCCCCCCCCCCCCCC(=O)O)C(=O)O)C(=O)O)C(=O)O)C(=O)N[C@H](C(N)=O)[C@@H](C)O [Chem. 3, N^ε28-[2-[2-[2-[[2-[2-[2-[[(4S)-4-carboxy-4-[[(4S)-4-carboxy-4-[[(4S)-4-carboxy-4-(17-carboxyheptadecanoylamino)butanoyl]amino]butanoyl]amino]butanoyl]amino]ethoxy]ethoxy]acetyl]amino]ethoxy]ethoxy]acetyl]-[Aib2,Leu10,Glu15,Arg20,Ile27,Lys28]-Glucagon amide] (H-H[Aib]QGTFTSDLSKYLESRRARDFVQWLIK([AEEA-AEEA-γGlu-γGlu-γGlu-C18 diacid])T-NH2; N-terminus assumed) | 2 | 0.1
CC[C@H](C)[C@H](NC(=O)[C@H](CC(C)C)NC(=O)[C@H](Cc1c[nH]c2ccccc12)NC(=O)[C@H](CCC(N)=O)NC(=O)[C@@H](NC(=O)[C@H](Cc1ccccc1)NC(=O)[C@H](CC(=O)O)NC(=O)[C@H](CCC(N)=O)NC(=O)[C@H](C)NC(=O)[C@H](CCCNC(=N)N)NC(=O)[C@H](CCCNC(=N)N)NC(=O)[C@@H](NC(=O)[C@H](CC(=O)O)NC(=O)[C@H](CC(C)C)NC(=O)[C@H](Cc1ccc(O)cc1)NC(=O)[C@H](CCCCN)NC(=O)[C@H](CO)NC(=O)[C@H](CC(C)C)NC(=O)[C@H](CC(=O)O)NC(=O)[C@H](CO)NC(=O)[C@@H](NC(=O)[C@H](Cc1ccccc1)NC(=O)[C@@H](NC(=O)CNC(=O)[C@H](CCC(N)=O)NC(=O)C(C)(C)NC(=O)[C@@H](N)Cc1c[nH]cn1)[C@@H](C)O)[C@@H](C)O)C(C)C)C(C)C)C(=O)N[C@@H](CCCCNC(=O)CC[C@H](NC(=O)COCCOCCNC(=O)COCCOCCNC(=O)CC[C@H](NC(=O)CC[C@H](NC(=O)CCCCCCCCCCCCCCCCC(=O)O)C(=O)O)C(=O)O)C(=O)O)C(=O)N[C@H](C(N)=O)[C@@H](C)O [Chem. 40, N^ε28-[(4S)-4-carboxy-4-[[2-[2-[2-[[2-[2-[2-[[(4S)-4-carboxy-4-[[(4S)-4-carboxy-4-(17-carboxyheptadecanoylamino)butanoyl]amino]butanoyl]amino]ethoxy]ethoxy]acetyl]amino]ethoxy]ethoxy]acetyl]amino]butanoyl]-[Aib2,Leu10,Val16,Ile27,Lys28]-Glucagon amide] (H-H[Aib]QGTFTSDLSKYLDVRRAQDFVQWLIK([γGlu-AEEA-AEEA-γGlu-γGlu-C18 diacid])T-NH2; N-terminus assumed) | 3 | 
